System: kynurenine-suppressed T cells
Experiment: Polyclonal restimulation with Concanavalin A of T cells suppressed during anti-CD3 stimulation
Type: cell-based, human
Details: anti-CD3 plus kynurenine 2 days, washed, Con-A in the absence of kynurenine
Experimental: • (a) Allogeneic T-cell response. DCs were infected with recombinant IDO-adeno-GFP (DC-IDO-GFP), IDO-adeno (DC-IDO) or with control adenoviruses (DC-adeno) at a MOI (multiplicity of infection) up to 500 for 2 days. Lymphocytes (PBMCs) were separated from peripheral blood of healthy donors by density gradient centrifugation and typed for HLA antigens. Only HLA-DR-different responder lymphocytes were used for DC-induced stimulation. […] After 5 days, ^3[H]-thymidin was added for 12hrs and the number of counts (counts per minute = cpm) determined in a (3-counter (Inotech Biosystems, Lansing, MI). In order to verify whether IDO expression or adenovirus infection harm the DCs, 10^5 cells were infected with IDO-adeno-GFP, IDO-adenovirus, or adenovirus only at a stepwise decreasing MOI (500, 250, 125, ........ 3.9) and cell viability was measured in FACS following double staining with 7-AAD and anti-CD83 antibody-PE. The percentage of dead cells never exceeded 30% for any MOI following IDO-adeno-GFP- or IDO-adeno-infection and 40% following adenovirus(control)-infection. […] After 2 days, cell proliferation was assessed by measuring ^3[H]-thymidin incorporation (cpm) as described. • (c) Tryptophan metabolite titration curves. […] After 2 days, ^3[H] thymidin was added and the number of counts recorded. […] After another 2 days, ^3[H] thymidin was added and cpm determined. […]

Nc1ccccc1C(=O)CC(N)C(=O)O (stereo not shown) [kynurenine]
restimulation with Con-A after suppression: cannot be restimulated

From patent publication EP1369114A1, “Use of tryptophan metabolites as pharmaceutical agents” (Terness, Peter, Priv. Doz. Dr., priority 2002, dated 2003)
